Data from patent US20040105861A1, “Use of factor XIIIa inhibitors to treat atherosclerosis” (SmithKline Beecham Corporation, priority 1997, published 2004).

Biological target: purified human Factor XIIIa (Homo sapiens, UniProt P00488)
Conditions: 10 mM EDTA added in the presence of Factor XIIIa 30 U/ml; fibrinogen 100 μg/ml, Lp(a) 500 μg/ml, 37° C., 30 minutes to 6 hours
Description: To determine if Factor XIIIa crosslinks Lp(a) with fibrinogen, Factor XIIIa was incubated with Lp(a) and fibrinogen in solution and then analyzed for Lp(a)-fibrinogen crosslinking over a time course ranging from 30 minutes to 6 hours. Briefly, purified human fibrinogen (Calbiochem, San Diego, Calif.), at a final concentration of 100 μg/ml, was incubated with purified human Lp(a) (Enzyme Research Laboratories, South Bend, Ind.) at a final concentration of 500 μg/ml, in the presence of purified human Factor XIIIa (Enzyme Research Laboratories, South Bend, Ind.) at 30 U/ml. As controls, Factor XIIIa was either omitted from the reaction or 10 mM EDTA was added in the presence of Factor XIIIa to inhibit Factor XIIIa activity. The reactions were conducted at 37° C. in a buffer of 40 mM Tris, 0.15 M NaCl, 5 mM dithiolthreitol, and 10 mM CaC12, at pH 8.3. Factor XIII was preactivated to Factor XIIIa immediately before each experiment by incubating Factor XIII with thrombin at 3 U/ml in 40 mM Tris and 0. 15 M NaCl, at pH 8.3 for 1 hour at room temperature. The activation procedure was stopped by adding hirudin at 100 U/ml (Sigma) to inhibit the thrombin. […]
To identify the presence of Lp(a) within the immunoprecipitated complexes, samples were analyzed by western blot using an antibody to Lp(a). […]

Sequence of purified human Factor XIIIa (P00488 39-732 limits assumed): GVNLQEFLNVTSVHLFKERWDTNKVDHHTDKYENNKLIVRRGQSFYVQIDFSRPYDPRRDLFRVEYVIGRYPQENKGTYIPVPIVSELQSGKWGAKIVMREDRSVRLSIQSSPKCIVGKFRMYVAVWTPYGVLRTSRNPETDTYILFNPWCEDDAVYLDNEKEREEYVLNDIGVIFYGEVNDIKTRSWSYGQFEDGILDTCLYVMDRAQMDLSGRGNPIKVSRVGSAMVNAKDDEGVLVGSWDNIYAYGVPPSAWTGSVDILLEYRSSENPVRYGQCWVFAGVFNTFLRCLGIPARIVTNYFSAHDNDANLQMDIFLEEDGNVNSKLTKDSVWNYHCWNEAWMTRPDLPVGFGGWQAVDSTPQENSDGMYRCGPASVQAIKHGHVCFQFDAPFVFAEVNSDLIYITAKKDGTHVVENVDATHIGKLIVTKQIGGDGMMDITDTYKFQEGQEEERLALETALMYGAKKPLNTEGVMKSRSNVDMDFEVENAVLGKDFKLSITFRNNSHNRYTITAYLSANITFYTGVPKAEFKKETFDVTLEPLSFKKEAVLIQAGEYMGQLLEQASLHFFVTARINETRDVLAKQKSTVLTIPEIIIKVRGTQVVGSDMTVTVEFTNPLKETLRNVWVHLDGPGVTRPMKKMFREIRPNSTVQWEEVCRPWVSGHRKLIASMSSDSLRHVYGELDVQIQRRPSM

Compound: O=C(O)CN(CCN(CC(=O)O)CC(=O)O)CC(=O)O [EDTA]
- Lp(a) crosslinked with fibrinogen (Lp(a) in anti-fibrinogen immunoprecipitated material, western blot): Lp(a) was not incorporated in the immunoprecipitated material
